In patent US9695155B2, “Herbicidal substituted pyrimidinyloxy benzene compounds” (E. I. DU PONT DE NEMOURS AND COMPANY, priority 2013, dated 2017):

Assays:
windgrass [1] = experiment: Test D preemergence; type: in vivo, Apera spica-venti; details: Apera spica-venti, pre-emergence
Method in brief: (§1)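 Greenhouse herbicide screen. Sowing into silt loam for preemergence application; foliar application to 2–18 cm seedlings in potting mix for postemergence. 0–100 visual control rating after 7–21 d.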

wild buckwheat = experiment: Test D postemergence; type: in vivo, Polygonum convolvulus; details: Fallopia convolvulus, post-emergence, Postemergence, scale 0 to 100 (0 no effect, 100 complete control), read-out: Plant response rating, Buckwheat, Wild
Method in brief: as §1

wild radish = experiment: Test D postemergence; type: in vivo, Raphanus raphanistrum; details: Raphanus raphanistrum, post-emergence
Method in brief: as §1

ragweed = experiment: Test F preemergence; type: in vivo, Ambrosia elatior; details: 21 days, scale 0 to 100
Method in brief: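 Loam/sand mix; preemergence spray, non-phytotoxic solvent + surfactant; greenhouse 21 d; visual injury vs untreated, 0 (none)–100 (complete control).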

blackgrass = experiment: Test D postemergence; type: in vivo, Alopecurus myosuroides; details: Alopecurus myosuroides, post-emergence, Postemergence, scale 0 to 100 (0 no effect, 100 complete control), read-out: Plant response rating, Blackgrass
Method in brief: as §1

windgrass [2] = experiment: Test D postemergence; type: in vivo, Apera spica-venti; details: Apera spica-venti, post-emergence
Method in brief: as §1

green foxtail = experiment: Test D postemergence; type: in vivo, Setaria viridis; details: Setaria viridis, post-emergence
Method in brief: as §1

lambsquarters = experiment: Test D preemergence; type: in vivo, Chenopodium album; details: Chenopodium album, pre-emergence
Method in brief: as §1

canarygrass = experiment: Test D preemergence; type: in vivo, Phalaris minor; details: Phalaris minor, pre-emergence
Method in brief: as §1

Italian ryegrass = experiment: Test D preemergence; type: in vivo, Lolium multiflorum; details: Lolium multiflorum, pre-emergence
Method in brief: as §1

nutsedge, purple = experiment: Test F preemergence; type: in vivo, Cyperus rotundus; details: 21 days, scale 0 to 100
Source text: Seeds of plant species selected from bermudagrass (Cynodon dactylon), surinam grass (Brachiaria decumbens), large (Lg) crabgrass (Digitaria sanguinalis), crabgrass, naked (naked crabgrass, Digitaria nuda), foxtail, green (green foxtail, Setaria viridis), johnsongrass (Sorghum halepense), kochia (Kochia scoparia), morningglory (pitted morningglory, Ipomoea lacunosa), nutsedge, purple (purple nutsedge, Cyperus rotundus), ragweed (common ragweed, Ambrosia elatior), mustard, black (black mustard, Brassica nigra), guineagrass (Panicum maximum), dallisgrass (Paspalum dilatatum), barnyardgrass (Echinochloa crus-galli), sandbur (southern sandbur, Cenchrus echinatus), sowthistle (common sowthistle, Sonchus oleraceous), Italian ryegrass (Lolium multiflorum), signalgrass (broadleaf signalgrass, Brachiaria platyphylla), dayflower (Virginia (VA) dayflower, Commelina virginica), bluegrass (annual bluegrass, Poa annua), quackgrass (Elytrigia repens), mallow (common mallow, Malva sylvestris), buckwheat, wild (wild buckwheat, Polygonum convolvulus), leafy spurge (Euphorbia esula), chickweed (common chickweed, Stellaria media), wild poinsettia (Euphorbia heterophylla), and pigweed (Amaranthus retroflexus) were planted into a blend of loam soil and sand and treated preemergence with test chemicals formulated in a non-phytotoxic solvent mixture which included a surfactant.
Treated plants and controls were maintained in a greenhouse for 21 days, after which time all species were compared to controls and visually evaluated. Plant response ratings, summarized in Table F, are based on a scale of 0 to 100 where 0 is no effect and 100 is complete control. A dash (-) response means no test result.

pigweed = experiment: Test D preemergence; type: in vivo, Amaranthus retroflexus; details: Amaranthus retroflexus, pre-emergence
Method in brief: as §1

wild mustard = experiment: Test D preemergence; type: in vivo, Sinapis arvensis; details: Brassica, pre-emergence
Method in brief: as §1

speedwell = experiment: Test D preemergence; type: in vivo, Veronica persica; details: Veronica persica, pre-emergence
Method in brief: as §1

chamomile = experiment: Test D postemergence; type: in vivo, Matricaria inodora; details: Tripleurospermum inodorum, post-emergence
Method in brief: as §1

chickweed = experiment: Test D preemergence; type: in vivo, Stellaria media; details: Stellaria media, pre-emergence
Method in brief: as §1

N#Cc1cccc(Oc2ncc(Cl)cn2)c1-n1cc(OCC(F)(F)F)cn1 [Compound 274, 3-[(5-chloro-2-pyrimidinyl)oxy]-2-[4-(2,2,2-trifluoroethoxy)-1H-pyrazol-1-yl]benzonitrile]
pest or weed control at 16 g/ha (windgrass [1]; 16 g ai/ha, scale 0 (no effect) to 100 (complete control), read-out: Plant response rating, Windgrass): 20% | pest or weed control at 31 g/ha (windgrass [1]; 31 g ai/ha, scale 0 (no effect) to 100 (complete control), read-out: Plant response rating, Windgrass): 90% | pest or weed control at 125 g/ha (windgrass [1]; 125 g ai/ha, scale 0-100, read-out: Plant response rating, Windgrass): 100% | pest or weed control at 16 g/ha (wild buckwheat; 16 g ai/ha): 65% | pest or weed control at 31 g/ha (wild buckwheat; 31 g ai/ha): 85% | pest or weed control at 62 g/ha (wild buckwheat; 62 g ai/ha): 100% | pest or weed control at 125 g/ha (wild buckwheat; 125 g ai/ha): 100% | pest or weed control at 16 g/ha (wild radish; 16 g ai/ha, scale 0-100, read-out: Plant response rating, Radish, Wild): 70% | pest or weed control at 31 g/ha (wild radish; 31 g ai/ha, scale 0 to 100 (0 no effect, 100 complete control), read-out: Plant response rating, Radish, Wild): 70% | pest or weed control at 62 g/ha (wild radish; 62 g ai/ha, scale 0 to 100 (0 no effect, 100 complete control), read-out: Plant response rating, Radish, Wild): 70% | pest or weed control at 125 g/ha (wild radish; 125 g ai/ha, scale 0 to 100 (0 no effect, 100 complete control), read-out: Plant response rating, Radish, Wild): 90% | Plant response rating, Ragweed (ragweed; 16 g ai/ha): 30 | Plant response rating, Ragweed (ragweed; 31 g ai/ha): 30 | Plant response rating, Ragweed (ragweed; 62 g ai/ha): 30 | Plant response rating, Ragweed (ragweed; 125 g ai/ha): 70 | Plant response rating, Ragweed (ragweed; 250 g ai/ha): 100 | pest or weed control at 62 g/ha (blackgrass; 62 g ai/ha): 20% | pest or weed control at 16 g/ha (blackgrass; 16 g ai/ha): 10% | pest or weed control at 31 g/ha (blackgrass; 31 g ai/ha): 15% | pest or weed control at 125 g/ha (blackgrass; 125 g ai/ha): 30% | pest or weed control at 16 g/ha (windgrass [2]; 16 g ai/ha, scale 0-100, read-out: Plant response rating, Windgrass): 15% | pest or weed control at 31 g/ha (windgrass [2]; 31 g ai/ha, scale 0 to 100 (0 no effect, 100 complete control), read-out: Plant response rating, Windgrass): 25% | pest or weed control at 62 g/ha (windgrass [2]; 62 g ai/ha, scale 0 to 100 (0 no effect, 100 complete control), read-out: Plant response rating, Windgrass): 35% | pest or weed control at 125 g/ha (windgrass [2]; 125 g ai/ha, scale 0 to 100 (0 no effect, 100 complete control), read-out: Plant response rating, Windgrass): 35% | pest or weed control at 16 g/ha (green foxtail; 16 g ai/ha, scale 0-100, read-out: Plant response rating, Foxtail, Green): 15% | pest or weed control at 31 g/ha (green foxtail; 31 g ai/ha, scale 0 to 100 (0 no effect, 100 complete control), read-out: Plant response rating, Foxtail, Green): 20% | pest or weed control at 62 g/ha (green foxtail; 62 g ai/ha, scale 0 to 100 (0 no effect, 100 complete control), read-out: Plant response rating, Foxtail, Green): 25% | pest or weed control at 125 g/ha (green foxtail; 125 g ai/ha, scale 0 to 100 (0 no effect, 100 complete control), read-out: Plant response rating, Foxtail, Green): 45% | pest or weed control at 16 g/ha (lambsquarters; 16 g ai/ha, scale 0 (no effect) to 100 (complete control), read-out: Plant response rating, Lambsquarters): 20% | pest or weed control at 31 g/ha (lambsquarters; 31 g ai/ha, scale 0-100, read-out: Plant response rating, Lambsquarters): 90% | pest or weed control at 62 g/ha (lambsquarters; 62 g ai/ha, scale 0-100, read-out: Plant response rating, Lambsquarters): 100% | pest or weed control at 125 g/ha (lambsquarters; 125 g ai/ha, scale 0-100, read-out: Plant response rating, Lambsquarters): 100% | pest or weed control at 16 g/ha (canarygrass; 16 g ai/ha, scale 0 (no effect) to 100 (complete control), read-out: Plant response rating, Canarygrass): 20% | pest or weed control at 31 g/ha (canarygrass; 31 g ai/ha, scale 0-100, read-out: Plant response rating, Canarygrass): 20% | pest or weed control at 62 g/ha (canarygrass; 62 g ai/ha, scale 0-100, read-out: Plant response rating, Canarygrass): 60% | pest or weed control at 125 g/ha (canarygrass; 125 g ai/ha, scale 0-100, read-out: Plant response rating, Canarygrass): 85% | pest or weed control at 16 g/ha (Italian ryegrass; 16 g ai/ha, scale 0 (no effect) to 100 (complete control), read-out: Plant response rating, Ryegrass, Italian): 0% | pest or weed control at 31 g/ha (Italian ryegrass; 31 g ai/ha, scale 0 (no effect) to 100 (complete control), read-out: Plant response rating, Ryegrass, Italian): 0% | pest or weed control at 125 g/ha (Italian ryegrass; 125 g ai/ha, scale 0-100, read-out: Plant response rating, Ryegrass, Italian): 70% | Plant response rating, Nutsedge, Purple (nutsedge, purple; 16 g ai/ha): 35 | Plant response rating, Nutsedge, Purple (nutsedge, purple; 31 g ai/ha): 50 | Plant response rating, Nutsedge, Purple (nutsedge, purple; 62 g ai/ha): 65 | Plant response rating, Nutsedge, Purple (nutsedge, purple; 125 g ai/ha): 85 | Plant response rating, Nutsedge, Purple (nutsedge, purple; 250 g ai/ha): 98 | pest or weed control at 16 g/ha (pigweed; 16 g ai/ha, scale 0 (no effect) to 100 (complete control), read-out: Plant response rating, Pigweed): 70% | pest or weed control at 31 g/ha (pigweed; 31 g ai/ha, scale 0 (no effect) to 100 (complete control), read-out: Plant response rating, Pigweed): 100% | pest or weed control at 125 g/ha (pigweed; 125 g ai/ha, scale 0-100, read-out: Plant response rating, Pigweed): 100% | pest or weed control at 16 g/ha (wild mustard; 16 g ai/ha, scale 0 (no effect) to 100 (complete control), read-out: Plant response rating, Mustard, Wild): 15% | pest or weed control at 31 g/ha (wild mustard; 31 g ai/ha, scale 0-100, read-out: Plant response rating, Mustard, Wild): 25% | pest or weed control at 62 g/ha (wild mustard; 62 g ai/ha, scale 0-100, read-out: Plant response rating, Mustard, Wild): 95% | pest or weed control at 125 g/ha (wild mustard; 125 g ai/ha, scale 0-100, read-out: Plant response rating, Mustard, Wild): 100% | pest or weed control at 16 g/ha (speedwell; 16 g ai/ha, scale 0 (no effect) to 100 (complete control), read-out: Plant response rating, Speedwell): 100% | pest or weed control at 31 g/ha (speedwell; 31 g ai/ha, scale 0 (no effect) to 100 (complete control), read-out: Plant response rating, Speedwell): 100% | pest or weed control at 125 g/ha (speedwell; 125 g ai/ha, scale 0-100, read-out: Plant response rating, Speedwell): 100% | pest or weed control at 16 g/ha (chamomile; 16 g ai/ha, scale 0-100, read-out: Plant response rating, Chamomile): 5% | pest or weed control at 31 g/ha (chamomile; 31 g ai/ha, scale 0 to 100 (0 no effect, 100 complete control), read-out: Plant response rating, Chamomile): 10% | pest or weed control at 62 g/ha (chamomile; 62 g ai/ha, scale 0 to 100 (0 no effect, 100 complete control), read-out: Plant response rating, Chamomile): 25% | pest or weed control at 125 g/ha (chamomile; 125 g ai/ha, scale 0 to 100 (0 no effect, 100 complete control), read-out: Plant response rating, Chamomile): 25% | pest or weed control at 16 g/ha (chickweed; 16 g ai/ha, scale 0 (no effect) to 100 (complete control), read-out: Plant response rating, Chickweed): 60% | pest or weed control at 31 g/ha (chickweed; 31 g ai/ha, scale 0-100, read-out: Plant response rating, Chickweed): 85% | pest or weed control at 62 g/ha (chickweed; 62 g ai/ha, scale 0-100, read-out: Plant response rating, Chickweed): 100% | pest or weed control at 125 g/ha (chickweed; 125 g ai/ha, scale 0-100, read-out: Plant response rating, Chickweed): 100%
